{"source": "paper PMC4551797", "about": "(PLoS ONE, 2015)", "test_system": "C57BL/6 mice", "test": "Acute in vivo incretin secretion assay (plasma GLP-1 and PYY AUC)", "details": "fasted mice, 3-hour time course", "from_the_text": "Plasma was separated by centrifugation, aliquoted, and analyzed for GLP-1 (X-36) amide (Mesoscale Discovery) and total PYY (Millipore). Resulting raw data was used to generate area under the curve analyses (AUCs).", "data": [{"smiles": "CC(=O)N1CCC(C(C)N(C(=O)COc2cccc3sc4nc(C)cn4c23)c2ccc(F)cc2)CC1", "note": "(centres unmarked) [compound 18]", "values": [{"measurement": "GLP-1 AUC increase over vehicle", "setting": "3 mg/kg oral", "result": 1.2, "unit": "fold over vehicle"}, {"measurement": "PYY AUC increase over vehicle", "setting": "3 mg/kg oral", "result": 1.1, "unit": "fold over vehicle"}, {"measurement": "GLP-1 AUC increase over vehicle", "setting": "10 mg/kg oral", "result": 2.0, "unit": "fold over vehicle"}, {"measurement": "PYY AUC increase over vehicle", "setting": "10 mg/kg oral", "result": 1.5, "unit": "fold over vehicle"}, {"measurement": "GLP-1 AUC increase over vehicle", "setting": "30 mg/kg oral", "result": 5.7, "unit": "fold over vehicle"}, {"measurement": "PYY AUC increase over vehicle", "setting": "30 mg/kg oral", "result": 3.1, "unit": "fold over vehicle"}, {"measurement": "GLP-1 AUC increase over vehicle", "setting": "100 mg/kg oral", "result": 12.1, "unit": "fold over vehicle"}, {"measurement": "PYY AUC increase over vehicle", "setting": "100 mg/kg oral", "result": 4.9, "unit": "fold over vehicle"}]}]}
